Common to all, as to format: cell-based, human
In test [1] the test system is OVCAR4 cells. As to the kind of experiment: Drug growth inhibition in cells depleted of dark kinases by siRNA (Cell Titer Glo). Particulars: increasing doses of drug. How it is done:
OVCAR4 cells were transfected with control nontargeting or dark kinase siRNAs and treated with escalating doses of appropriate drugs.
To explore if blocking dark kinases AAK1, STK38 or MRCKA activity in combination with current therapies improves drug efficacy, OVCAR4 cells depleted of AAK1, STK38 or MRCKA were treated with increasing doses of carboplatin, olaparib, JQ1, or a variety of kinase inhibitors in clinical trials for HGSOC.
siRNA transfections were performed using 25 nM siRNA duplex and the reverse transfection protocol. 3000-5000 cells per well were added to 96 well plates with media containing the siRNA and transfection reagent (Lipofectamine RNAiMax) according to the manufacturer's instructions. In experiments where inhibitors were used, the inhibitor was added at the time of transfection. Cells were allowed to grow for 72-120 hours post-transfection prior to CellTiter Glo (Promega) analysis. Two-to-three independent experiments were performed with each cell line and siRNA. Students t tests were performed for statistical analyses and p values ≤0.05 were considered significant. For western blot studies, the same procedure was performed with volumes and cell numbers proportionally scaled to a 60 mm or 10 cm dish, and cells were collected 24-72 hours post-transfection. siRNA product numbers and manufacturers are listed in Table 5.

The test system of test [2] is SNU-119. The test can be described thus: Short-term growth assay (CellTiter-Glo cell viability), kinase inhibitors. As to the method: (§1) Cell viability was determined by Cell Titer Glo analysis.
(§2) To explore the therapeutic potential of the HGSOC kinome signature, a detailed molecular analysis of protein levels/activity, growth and survival functions was carried out in a panel of recently validated HGSOC cell lines (Coscia et al., Nat. Commun., 2016, 7, 12645) that harbor commonly encountered HGSOC mutations and genetic rearrangements (see, FIG. 5A).
(§3) For short-term growth assays, 3000-5000 cells were plated per well in 96-well plates and allowed to adhere and equilibrate overnight. Drug was added the following morning and after 120 hours of drug treatment, cell viability was assessed using the CellTiter-Glo Luminescent cell viability assay according to manufacturer (Promega). Students t tests were performed for statistical analyses and p values ≤0.05 were considered significant. For colony formation assays, cells were plated in 24-well dishes (3000-5000 cells per well) and incubated overnight before continuous drug treatment for 14 days, with drug and media replaced twice weekly. At the end of treatment, cells were rinsed with PBS and fixed with chilled methanol for 10 minutes at −20° C. Methanol was removed by aspiration, and cells were stained with 0.5% crystal violet in 20% methanol for 20 minutes at room temperature, washed with distilled water, and scanned.

Test [3] relates to OVCAR4. The test is described as above. As to the method: as §1, §2, §3
Test [4] has as its system OVSAHO. Described as above. How it is done:
as §1, §2, §3

Test [5] has as its system Kuramochi. The description is as above. How it is done:
as §1, §2, §3

Test [6] deals with COV362. The description is as above. How it is done: as §1
COV362 cells were treated with increasing concentrations of A-674563 and cell viability assessed by Cell Titer Glo according to manufacturer's instructions. Data represent the mean of six replicates.
as §2, §3

Take `CS(=O)(=O)N1CCN(Cc2cc3nc(-c4cccc5[nH]ncc45)nc(N4CCOCC4)c3s2)CC1` [GDC-0941]: the “growth inhibition by drug combined with knockdown of STK38” value in test [1] is given as “improved growth inhibition”.

Turning to `CNc1ncc2cc(-c3cc(NC(=O)NCCC(C)(C)C)c(F)cc3C)c(C)nc2n1` [LY300], the “Kinase inhibition profile of HGSOC cells (growth inhibition, Cell Titer Glo)” value (“Kinase inhibition profile of HGSOC cells” for short) in test [2] (drug 1.2 uM) was 0.6599; in test [3] (drug 1.2 uM), 0.6062; in test [4] (drug 1.2 uM), 0.166; in test [5] (drug 1.2 uM), 0.09151; in test [6] (drug 1.2 uM) it was 0.2612.

For the molecule `NC(=O)Nc1sc(-c2ccc(F)cc2)cc1C(N)=O` [TPCA-1], the “Kinase inhibition profile of HGSOC cells” value is listed as 0.9375 in test [2] (drug 1.2 uM); 0.8768 in test [3] (drug 1.2 uM); 0.9827 in test [4] (drug 1.2 uM); 0.988 in test [5] (drug 1.2 uM); 1.094 in test [6] (drug 1.2 uM).

With `CCc1cc(Nc2nccc(-c3c(-c4ccc(OC)c(C(=O)Nc5c(F)cccc5F)c4)nc4ccccn34)n2)c(OC)cc1N1CCC(N2CCN(S(C)(=O)=O)CC2)CC1` [GSK529A], the “Kinase inhibition profile of HGSOC cells” value is listed as 0.6579 in test [2] (drug 5 uM); 0.5226 in test [3] (drug 5 uM); 0.6574 in test [4] (drug 5 uM); 0.9732 in test [5] (drug 5 uM); 0.9731 in test [6] (drug 5 uM).

On to `Cc1sc2c(c1C)C(c1ccc(Cl)cc1)=N[C@@H](CC(=O)OC(C)(C)C)c1nnc(C)n1-2` [JQ1], for which, in test [1], the “growth inhibition by drug combined with depletion of AAK1” value is listed as “enhanced growth inhibition” and the “growth inhibition by drug with MRCKA knockdown relative to non-targeting control siRNA” value is recorded as “enhanced growth inhibition”.

With `CCOc1ccn(-c2ccc(F)cc2)c(=O)c1C(=O)Nc1ccc(Oc2ccnc(N)c2Cl)c(F)c1` [BMS777607], the “Kinase inhibition profile of HGSOC cells” value in test [2] (drug 1.2 uM) was determined as 1.028; in test [3] (drug 1.2 uM), 1.062; in test [4] (drug 1.2 uM), 1.102; in test [5] (drug 1.2 uM), 1.007; in test [6] (drug 1.2 uM), 0.9079.

For `CC(=O)Nc1cccc(-n2c(=O)n(C3CC3)c(=O)c3c(Nc4ccc(I)cc4F)n(C)c(=O)c(C)c32)c1` [Trametinib], the “Kinase inhibition profile of HGSOC cells” value in test [2] (drug 0.0125 uM) is 0; in test [3] (drug 0.0125 uM), 0.8436; in test [4] (drug 0.0125 uM) it was 0.7824; in test [5] (drug 0.0125 uM) it was 0.7708; in test [6] (drug 0.0125 uM), 0.5766.

For `COc1cc2c(Oc3ccc4[nH]c(C)cc4c3F)ncnc2cc1OCCCN1CCCC1` [Cederinib], the “Kinase inhibition profile of HGSOC cells” value in test [2] (drug 1.2 uM) is reported as 0.6258; in test [3] (drug 1.2 uM), 1.089; in test [4] (drug 1.2 uM), 1.089; in test [5] (drug 1.2 uM) it was 0.9466; in test [6] (drug 1.2 uM), 0.9246.

Take `CCS(=O)(=O)N1CCN(c2ccc(Nc3ncc(C(N)=O)c(NC4CC4)n3)cc2)CC1` [Cerdulatinib]: the “Kinase inhibition profile of HGSOC cells” value in test [2] (drug 2.5 uM) is on record as 0.8395; in test [3] (drug 2.5 uM), 0.5051; in test [4] (drug 2.5 uM), 1; in test [5] (drug 2.5 uM) it was 1; in test [6] (drug 2.5 uM), −0.008256.

Source of the values: patent US20210318318A1, “Kinase Activity In Tumors” (Institute For Cancer Research d/b/a The Research Institute …, priority 2018, published 2021).
